Measurements taken from ChEMBL document CHEMBL5465560, “Selectivity Literature for EUbOPEN Chemogenomic Library” (2024).
Values belong to the compound of their own block, whether it stands above or below them.

Experiments:
[1] = target: Calcium/calmodulin-dependent protein kinase type 1D (Homo sapiens) (UniProt Q8IU85); conditions: at 10 µM
[2] = target: Protein kinase C beta type (Homo sapiens, UniProt P05771); test: Selectivity interaction (ActivX KiNativ screen (ex vivo kinase selectivity in human PBMCs)) EUB0001619a PRKCB; type: cell-based; conditions: PBMC, at 1 µM
[3] = target: T1, Tyrosine-protein kinase ZAP-70 (Homo sapiens) (UniProt P43403); test: Selectivity interaction (ActivX KiNativ screen (ex vivo kinase selectivity in human PBMCs)) EUB0001619a ZAP70; type: cell-based; conditions: PBMC, at 1 µM
T1 sequence (whole entry): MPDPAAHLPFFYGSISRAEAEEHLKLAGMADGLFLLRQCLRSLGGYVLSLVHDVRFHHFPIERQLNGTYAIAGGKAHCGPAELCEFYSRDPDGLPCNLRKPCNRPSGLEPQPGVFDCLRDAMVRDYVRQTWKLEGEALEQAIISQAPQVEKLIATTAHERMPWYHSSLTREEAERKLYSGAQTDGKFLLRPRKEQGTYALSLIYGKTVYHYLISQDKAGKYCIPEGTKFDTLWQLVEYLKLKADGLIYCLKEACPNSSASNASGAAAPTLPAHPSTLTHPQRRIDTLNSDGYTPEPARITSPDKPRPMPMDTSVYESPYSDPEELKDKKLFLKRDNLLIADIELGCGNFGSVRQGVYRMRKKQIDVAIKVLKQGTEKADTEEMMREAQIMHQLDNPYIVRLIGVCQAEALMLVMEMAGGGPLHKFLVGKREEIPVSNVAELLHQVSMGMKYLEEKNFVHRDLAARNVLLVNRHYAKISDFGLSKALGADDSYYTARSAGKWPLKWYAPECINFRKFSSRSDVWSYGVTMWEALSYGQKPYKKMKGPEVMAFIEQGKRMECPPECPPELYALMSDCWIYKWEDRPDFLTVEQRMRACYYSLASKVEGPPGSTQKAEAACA

[4] = target: T2, Ephrin type-B receptor 4 (Homo sapiens) (UniProt P54760); test: Selectivity interaction (KinomeScan (DiscoverX)) EUB0000045b EPHB4
T2 sequence (whole entry): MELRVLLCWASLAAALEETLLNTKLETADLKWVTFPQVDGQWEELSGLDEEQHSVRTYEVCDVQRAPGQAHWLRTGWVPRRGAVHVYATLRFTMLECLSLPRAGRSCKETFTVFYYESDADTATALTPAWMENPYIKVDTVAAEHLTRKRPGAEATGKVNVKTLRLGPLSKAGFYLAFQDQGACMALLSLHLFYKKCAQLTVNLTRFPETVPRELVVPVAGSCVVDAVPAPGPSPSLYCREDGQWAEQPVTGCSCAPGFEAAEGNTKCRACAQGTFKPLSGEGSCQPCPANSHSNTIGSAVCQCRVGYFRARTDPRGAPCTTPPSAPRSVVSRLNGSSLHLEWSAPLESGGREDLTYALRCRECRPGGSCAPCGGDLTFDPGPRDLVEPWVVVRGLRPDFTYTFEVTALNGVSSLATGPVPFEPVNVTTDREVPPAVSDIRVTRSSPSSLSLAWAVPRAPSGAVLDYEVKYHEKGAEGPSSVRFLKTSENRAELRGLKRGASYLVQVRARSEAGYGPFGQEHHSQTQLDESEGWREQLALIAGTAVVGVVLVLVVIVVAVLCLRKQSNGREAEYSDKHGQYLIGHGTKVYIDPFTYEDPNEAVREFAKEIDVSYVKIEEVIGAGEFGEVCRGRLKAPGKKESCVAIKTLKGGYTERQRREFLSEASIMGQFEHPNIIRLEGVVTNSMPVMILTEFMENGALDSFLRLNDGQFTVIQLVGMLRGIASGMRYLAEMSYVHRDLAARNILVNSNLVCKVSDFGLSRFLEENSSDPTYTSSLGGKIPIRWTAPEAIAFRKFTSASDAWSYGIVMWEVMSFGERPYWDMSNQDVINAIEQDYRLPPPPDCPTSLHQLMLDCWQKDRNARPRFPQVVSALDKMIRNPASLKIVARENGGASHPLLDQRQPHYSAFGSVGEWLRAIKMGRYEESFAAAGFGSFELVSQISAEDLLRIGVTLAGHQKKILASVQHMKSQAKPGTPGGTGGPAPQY

[5] = target: Mitogen-activated protein kinase 10 (Homo sapiens, UniProt P53779); test: Selectivity interaction (KinomeScan (DiscoverX)) EUB0000045b MAPK10
[6] = target: MAP kinase-activated protein kinase 2 (Homo sapiens, UniProt P49137); test: Selectivity interaction (KinomeScan (DiscoverX)) EUB0000045b MAPKAPK2
Insulin receptor [7] = target: T3, Insulin receptor (Homo sapiens, UniProt P06213); test: Selectivity interaction (Upstate Kinase Profiler service (Millipore)) EUB0000056c INSR; conditions: at 1 µM
[8] = target: Serine/threonine-protein kinase PLK3 (Homo sapiens, UniProt Q9H4B4); test: Selectivity interaction (Upstate Kinase Profiler service (Millipore)) EUB0000056c PLK3; conditions: at 1 µM
[9] = tested on: Epidermal growth factor receptor (Homo sapiens), P00533 [UNDEFINED MUTATION]; test: Selectivity interaction (ProQinase) EUB0000171b EGFR; conditions: at 1 µM
Insulin receptor [10] = target: T3, Insulin receptor; test: Selectivity interaction (ProQinase) EUB0000171b INSR; conditions: at 5 µM

Chain of MAP kinase-activated protein kinase 2 (P49137 whole entry, looked up): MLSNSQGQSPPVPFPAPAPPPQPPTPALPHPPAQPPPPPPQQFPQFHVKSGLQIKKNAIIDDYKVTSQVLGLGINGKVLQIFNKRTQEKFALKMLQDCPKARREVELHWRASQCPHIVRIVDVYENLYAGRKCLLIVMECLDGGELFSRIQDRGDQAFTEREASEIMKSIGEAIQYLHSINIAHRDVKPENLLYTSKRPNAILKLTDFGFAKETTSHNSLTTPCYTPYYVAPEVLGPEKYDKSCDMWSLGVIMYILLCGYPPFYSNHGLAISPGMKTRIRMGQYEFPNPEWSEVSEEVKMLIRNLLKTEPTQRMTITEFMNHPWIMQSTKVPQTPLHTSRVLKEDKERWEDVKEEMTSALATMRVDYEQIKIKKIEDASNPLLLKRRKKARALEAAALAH
Chain of Mitogen-activated protein kinase 10 (P53779 whole entry): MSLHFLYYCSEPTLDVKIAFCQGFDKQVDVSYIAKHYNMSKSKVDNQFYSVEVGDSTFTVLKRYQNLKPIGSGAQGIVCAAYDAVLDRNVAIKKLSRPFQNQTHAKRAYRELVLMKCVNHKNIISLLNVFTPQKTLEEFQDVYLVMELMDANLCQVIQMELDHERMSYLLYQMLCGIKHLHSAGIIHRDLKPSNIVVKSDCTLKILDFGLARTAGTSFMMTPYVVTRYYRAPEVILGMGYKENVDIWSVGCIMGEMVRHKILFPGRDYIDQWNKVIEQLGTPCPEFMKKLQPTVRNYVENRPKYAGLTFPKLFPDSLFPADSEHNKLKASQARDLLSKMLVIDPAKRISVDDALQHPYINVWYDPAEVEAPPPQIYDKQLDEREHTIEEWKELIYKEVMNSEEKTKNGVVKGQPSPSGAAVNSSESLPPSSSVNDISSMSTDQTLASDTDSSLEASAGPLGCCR
T3 sequence (P06213 28-758 limits assumed): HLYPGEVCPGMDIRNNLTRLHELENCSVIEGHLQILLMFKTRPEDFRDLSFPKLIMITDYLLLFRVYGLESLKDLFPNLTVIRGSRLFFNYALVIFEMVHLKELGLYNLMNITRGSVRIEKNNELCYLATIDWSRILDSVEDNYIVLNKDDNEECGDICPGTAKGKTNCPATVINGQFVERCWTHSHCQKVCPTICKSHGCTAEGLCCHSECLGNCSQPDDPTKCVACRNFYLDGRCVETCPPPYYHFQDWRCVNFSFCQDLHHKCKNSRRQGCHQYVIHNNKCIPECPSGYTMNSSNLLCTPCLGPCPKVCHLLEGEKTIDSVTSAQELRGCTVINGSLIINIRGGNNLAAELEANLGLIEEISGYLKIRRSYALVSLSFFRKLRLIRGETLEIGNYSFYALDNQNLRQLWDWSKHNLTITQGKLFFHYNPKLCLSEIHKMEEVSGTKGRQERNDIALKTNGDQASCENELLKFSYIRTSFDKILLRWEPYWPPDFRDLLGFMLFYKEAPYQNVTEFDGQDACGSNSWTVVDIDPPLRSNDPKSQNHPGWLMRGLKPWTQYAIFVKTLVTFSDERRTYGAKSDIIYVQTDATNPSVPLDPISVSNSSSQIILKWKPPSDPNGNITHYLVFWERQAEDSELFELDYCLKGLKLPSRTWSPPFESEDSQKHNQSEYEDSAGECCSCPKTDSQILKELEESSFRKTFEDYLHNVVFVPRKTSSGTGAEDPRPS
T3 sequence (P06213 763-1382 limits assumed): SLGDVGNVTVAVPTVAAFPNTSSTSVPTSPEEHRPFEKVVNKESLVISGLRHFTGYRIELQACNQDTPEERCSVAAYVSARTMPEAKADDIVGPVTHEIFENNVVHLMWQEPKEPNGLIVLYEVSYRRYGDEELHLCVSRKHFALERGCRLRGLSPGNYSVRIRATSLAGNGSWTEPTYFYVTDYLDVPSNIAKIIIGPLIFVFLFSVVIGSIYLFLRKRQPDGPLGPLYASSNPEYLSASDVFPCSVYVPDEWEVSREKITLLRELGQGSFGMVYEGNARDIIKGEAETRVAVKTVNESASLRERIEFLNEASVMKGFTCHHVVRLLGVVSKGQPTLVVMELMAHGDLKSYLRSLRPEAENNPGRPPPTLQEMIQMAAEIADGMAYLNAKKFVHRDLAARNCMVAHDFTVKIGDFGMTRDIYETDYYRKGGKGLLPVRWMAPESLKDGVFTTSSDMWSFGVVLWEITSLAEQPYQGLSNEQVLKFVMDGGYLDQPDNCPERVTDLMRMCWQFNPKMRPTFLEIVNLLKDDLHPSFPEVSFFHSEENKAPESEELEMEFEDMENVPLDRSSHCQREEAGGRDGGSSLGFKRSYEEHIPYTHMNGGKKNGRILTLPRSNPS
Chain of Calcium/calmodulin-dependent protein kinase type 1D (Homo sapiens) (Q8IU85 whole entry, looked up): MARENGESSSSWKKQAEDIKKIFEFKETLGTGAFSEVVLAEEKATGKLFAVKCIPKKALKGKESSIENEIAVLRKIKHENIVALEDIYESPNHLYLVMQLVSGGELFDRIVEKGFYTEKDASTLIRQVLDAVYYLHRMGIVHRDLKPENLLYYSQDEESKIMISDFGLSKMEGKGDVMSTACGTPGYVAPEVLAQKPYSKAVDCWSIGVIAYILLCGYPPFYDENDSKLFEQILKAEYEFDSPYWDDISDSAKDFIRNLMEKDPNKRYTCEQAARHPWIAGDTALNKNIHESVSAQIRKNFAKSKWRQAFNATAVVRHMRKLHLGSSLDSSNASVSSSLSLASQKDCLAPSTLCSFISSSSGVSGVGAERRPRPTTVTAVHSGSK
Chain of Protein kinase C beta type (P05771 2-671 limits assumed): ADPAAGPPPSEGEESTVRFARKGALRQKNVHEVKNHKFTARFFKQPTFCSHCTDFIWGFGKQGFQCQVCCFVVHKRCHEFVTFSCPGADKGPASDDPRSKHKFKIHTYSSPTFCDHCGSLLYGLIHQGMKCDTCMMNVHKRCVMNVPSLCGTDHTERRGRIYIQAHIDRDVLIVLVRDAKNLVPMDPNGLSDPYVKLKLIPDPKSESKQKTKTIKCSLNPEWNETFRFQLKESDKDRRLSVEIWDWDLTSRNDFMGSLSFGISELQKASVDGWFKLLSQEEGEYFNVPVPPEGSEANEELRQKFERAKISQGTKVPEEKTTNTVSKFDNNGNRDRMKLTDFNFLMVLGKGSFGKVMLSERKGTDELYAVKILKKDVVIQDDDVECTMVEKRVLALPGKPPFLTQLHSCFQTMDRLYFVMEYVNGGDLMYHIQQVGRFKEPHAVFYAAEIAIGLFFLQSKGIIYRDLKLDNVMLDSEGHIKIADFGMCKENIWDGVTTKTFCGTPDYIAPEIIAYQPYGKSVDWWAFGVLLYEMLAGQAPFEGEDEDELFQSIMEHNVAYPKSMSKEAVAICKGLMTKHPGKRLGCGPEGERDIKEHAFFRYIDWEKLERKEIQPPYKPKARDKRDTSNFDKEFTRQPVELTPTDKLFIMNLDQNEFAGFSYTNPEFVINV
Chain of Epidermal growth factor receptor (Homo sapiens), P00533 [UNDEFINED MUTATION] (P00533 whole entry, looked up, stated change not applied): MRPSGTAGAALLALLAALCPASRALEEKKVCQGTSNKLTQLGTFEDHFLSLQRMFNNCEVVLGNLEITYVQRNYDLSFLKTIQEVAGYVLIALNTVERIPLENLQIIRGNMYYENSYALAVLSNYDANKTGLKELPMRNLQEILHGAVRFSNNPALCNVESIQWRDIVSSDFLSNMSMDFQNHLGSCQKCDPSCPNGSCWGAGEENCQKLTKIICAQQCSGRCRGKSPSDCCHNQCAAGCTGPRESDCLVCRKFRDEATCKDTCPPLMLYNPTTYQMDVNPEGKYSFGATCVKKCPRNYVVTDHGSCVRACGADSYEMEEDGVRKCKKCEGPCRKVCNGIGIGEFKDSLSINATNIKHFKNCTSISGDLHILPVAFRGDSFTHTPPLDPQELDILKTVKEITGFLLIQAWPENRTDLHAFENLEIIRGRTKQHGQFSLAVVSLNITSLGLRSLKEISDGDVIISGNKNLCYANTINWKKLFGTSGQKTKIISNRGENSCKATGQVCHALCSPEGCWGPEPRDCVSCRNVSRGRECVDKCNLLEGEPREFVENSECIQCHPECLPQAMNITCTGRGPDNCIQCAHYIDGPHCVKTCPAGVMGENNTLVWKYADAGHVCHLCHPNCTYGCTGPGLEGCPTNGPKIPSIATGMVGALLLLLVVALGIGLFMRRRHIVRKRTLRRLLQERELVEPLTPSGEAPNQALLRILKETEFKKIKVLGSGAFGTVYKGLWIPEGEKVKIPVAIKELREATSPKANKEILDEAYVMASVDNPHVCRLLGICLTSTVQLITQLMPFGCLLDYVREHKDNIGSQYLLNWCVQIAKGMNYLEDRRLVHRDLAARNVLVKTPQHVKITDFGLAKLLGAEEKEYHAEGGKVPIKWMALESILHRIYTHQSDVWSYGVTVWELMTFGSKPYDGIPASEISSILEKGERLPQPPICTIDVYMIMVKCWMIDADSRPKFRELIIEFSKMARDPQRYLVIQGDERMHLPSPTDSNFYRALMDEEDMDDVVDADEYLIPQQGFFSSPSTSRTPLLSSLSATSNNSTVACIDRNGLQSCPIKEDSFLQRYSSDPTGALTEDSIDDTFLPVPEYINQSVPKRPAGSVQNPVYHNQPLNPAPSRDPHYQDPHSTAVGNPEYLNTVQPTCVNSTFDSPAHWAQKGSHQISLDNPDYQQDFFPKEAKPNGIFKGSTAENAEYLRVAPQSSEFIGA

Compound: N#Cc1cccc(-c2c[nH]c3ncnc(N4CCOCC4)c23)c1
% of inhibition [2]: 57%
% of inhibition [3]: 7%

Compound: C=CC(=O)Nc1cc(-n2c(=O)ccc3cnc4ccc(-c5ccc(NS(C)(=O)=O)cc5)cc4c32)ccc1C
% of control ([4]; at 1 µM): 100%
% of control ([4]; at 10 µM): 100%
% of control ([5]; at 1 µM): 100%
% of control ([5]; at 10 µM): 20%
% of control ([6]; at 1 µM): 100%
% of control ([6]; at 10 µM): 100%

Compound: Cc1ccc(-c2ccc3c(ccc4sc5c(c43)NC[C@@H](C)NC5=O)n2)cn1
% of inhibition (Insulin receptor [7]): 5%
% of inhibition [8]: -2%

More lines, now with the values ahead:

% of control [1]: 100%
Compound: CCN(CC)CCCCNc1ncc2cc(-c3cc(OC)cc(OC)c3)c(NC(=O)NC(C)(C)C)nc2n1

% of control [9]: 101%
% of control (Insulin receptor [10]): 72%
Compound: C=CC(=O)Nc1cccc(C(=O)Nc2ccc(Nc3cc(-c4[nH]c(SC)nc4C)ccn3)cc2)c1
